Data reported in ChEMBL document CHEMBL3991601, “The target landscape of clinical kinase drugs” (Science, 2017).
The source made the active and inactive calls.

Legend:
[1] = target: T1, ATP-dependent RNA helicase DDX42 (Homo sapiens, UniProt Q86XP3)
T1 sequence (Q86XP3 whole entry): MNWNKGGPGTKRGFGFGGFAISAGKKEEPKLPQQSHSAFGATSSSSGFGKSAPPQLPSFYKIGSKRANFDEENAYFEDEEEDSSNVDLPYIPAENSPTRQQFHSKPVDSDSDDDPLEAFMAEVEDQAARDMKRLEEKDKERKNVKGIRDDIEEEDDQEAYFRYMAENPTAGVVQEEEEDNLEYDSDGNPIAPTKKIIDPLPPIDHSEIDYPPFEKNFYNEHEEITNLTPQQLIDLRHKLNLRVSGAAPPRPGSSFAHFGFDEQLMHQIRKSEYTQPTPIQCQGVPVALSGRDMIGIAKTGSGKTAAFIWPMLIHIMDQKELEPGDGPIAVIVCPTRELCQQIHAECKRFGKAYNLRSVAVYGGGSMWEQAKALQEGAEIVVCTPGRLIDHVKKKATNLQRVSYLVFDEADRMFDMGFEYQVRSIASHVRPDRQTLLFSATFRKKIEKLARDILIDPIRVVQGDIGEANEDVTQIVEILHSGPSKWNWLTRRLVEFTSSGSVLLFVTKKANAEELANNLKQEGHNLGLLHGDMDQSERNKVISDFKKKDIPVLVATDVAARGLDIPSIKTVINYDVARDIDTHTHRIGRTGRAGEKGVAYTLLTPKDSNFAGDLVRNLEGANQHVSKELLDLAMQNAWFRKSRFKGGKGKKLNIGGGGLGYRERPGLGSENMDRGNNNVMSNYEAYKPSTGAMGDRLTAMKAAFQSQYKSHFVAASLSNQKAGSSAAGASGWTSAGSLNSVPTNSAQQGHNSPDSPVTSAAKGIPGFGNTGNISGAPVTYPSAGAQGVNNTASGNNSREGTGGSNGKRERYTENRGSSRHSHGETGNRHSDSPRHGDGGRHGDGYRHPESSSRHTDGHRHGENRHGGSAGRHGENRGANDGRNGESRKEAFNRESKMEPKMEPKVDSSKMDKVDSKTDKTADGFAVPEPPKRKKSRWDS

[2] = target: T2, RNA cytidine acetyltransferase (Homo sapiens, UniProt Q9H0A0)
T2 sequence (Q9H0A0 whole entry): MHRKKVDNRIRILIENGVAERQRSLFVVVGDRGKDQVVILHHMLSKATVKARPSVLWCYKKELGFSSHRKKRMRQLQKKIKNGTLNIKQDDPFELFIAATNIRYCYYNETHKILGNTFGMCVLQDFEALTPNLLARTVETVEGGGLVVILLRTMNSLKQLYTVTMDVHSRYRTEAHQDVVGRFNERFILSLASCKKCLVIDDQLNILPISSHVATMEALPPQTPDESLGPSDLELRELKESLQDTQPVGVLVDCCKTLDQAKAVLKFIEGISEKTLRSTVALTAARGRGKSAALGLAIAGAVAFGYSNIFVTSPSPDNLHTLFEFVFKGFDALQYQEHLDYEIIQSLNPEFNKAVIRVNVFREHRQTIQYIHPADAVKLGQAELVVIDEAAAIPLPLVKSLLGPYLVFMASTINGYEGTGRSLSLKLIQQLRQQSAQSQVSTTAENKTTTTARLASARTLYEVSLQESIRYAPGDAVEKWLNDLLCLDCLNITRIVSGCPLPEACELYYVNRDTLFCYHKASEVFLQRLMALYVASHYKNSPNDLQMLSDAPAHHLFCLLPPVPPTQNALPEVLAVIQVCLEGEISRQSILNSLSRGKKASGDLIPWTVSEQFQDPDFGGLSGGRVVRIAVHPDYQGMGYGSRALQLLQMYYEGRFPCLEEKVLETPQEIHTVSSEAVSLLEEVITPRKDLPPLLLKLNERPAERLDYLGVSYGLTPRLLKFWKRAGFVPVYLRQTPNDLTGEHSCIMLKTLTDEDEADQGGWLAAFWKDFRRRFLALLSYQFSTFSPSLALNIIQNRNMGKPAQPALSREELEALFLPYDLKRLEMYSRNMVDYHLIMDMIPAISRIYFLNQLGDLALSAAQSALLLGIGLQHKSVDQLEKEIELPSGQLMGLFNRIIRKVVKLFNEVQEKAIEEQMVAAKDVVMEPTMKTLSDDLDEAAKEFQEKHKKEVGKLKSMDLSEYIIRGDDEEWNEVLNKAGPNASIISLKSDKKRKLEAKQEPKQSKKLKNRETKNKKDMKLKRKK

[3] = target: Cyclin-dependent kinase 3 (Homo sapiens, UniProt Q00526)
[4] = target: T3, Serine/threonine-protein kinase ICK (Homo sapiens, UniProt Q9UPZ9)
T3 sequence (Q9UPZ9 whole entry): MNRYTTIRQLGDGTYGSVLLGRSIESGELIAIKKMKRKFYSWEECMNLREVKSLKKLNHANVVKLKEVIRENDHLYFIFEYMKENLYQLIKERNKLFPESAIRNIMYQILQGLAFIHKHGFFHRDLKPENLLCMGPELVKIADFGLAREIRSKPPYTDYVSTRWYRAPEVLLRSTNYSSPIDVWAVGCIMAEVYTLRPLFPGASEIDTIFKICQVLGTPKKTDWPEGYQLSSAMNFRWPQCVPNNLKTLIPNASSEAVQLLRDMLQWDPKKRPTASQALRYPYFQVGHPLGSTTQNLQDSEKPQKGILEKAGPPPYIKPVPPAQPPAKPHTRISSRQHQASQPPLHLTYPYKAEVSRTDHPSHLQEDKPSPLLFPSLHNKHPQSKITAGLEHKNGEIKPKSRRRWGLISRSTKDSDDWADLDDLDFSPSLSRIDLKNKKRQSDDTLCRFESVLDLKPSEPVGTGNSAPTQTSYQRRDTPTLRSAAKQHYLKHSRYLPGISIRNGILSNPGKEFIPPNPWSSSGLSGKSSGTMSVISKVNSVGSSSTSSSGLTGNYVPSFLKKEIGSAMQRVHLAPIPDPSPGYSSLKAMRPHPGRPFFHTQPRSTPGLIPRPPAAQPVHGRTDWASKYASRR
Also: in the data inactive means no Kd found up to 30 µM.

Cyclin-dependent kinase 3, sequence (Q00526 whole entry): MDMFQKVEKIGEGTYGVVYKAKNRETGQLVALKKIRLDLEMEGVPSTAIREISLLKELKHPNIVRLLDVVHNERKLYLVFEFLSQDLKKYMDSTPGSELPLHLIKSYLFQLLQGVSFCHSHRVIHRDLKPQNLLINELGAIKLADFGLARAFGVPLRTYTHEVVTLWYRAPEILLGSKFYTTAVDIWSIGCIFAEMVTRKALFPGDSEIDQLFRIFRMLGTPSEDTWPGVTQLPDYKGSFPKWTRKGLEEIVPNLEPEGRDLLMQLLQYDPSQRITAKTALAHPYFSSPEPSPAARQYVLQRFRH

| Kd [1] | Kd [2] | Kd [3] | Kd [4] | Structure (SMILES) |
| --- | --- | --- | --- | --- |
| > 30 µM (inactive) | > 30 µM (inactive) | > 30 µM (inactive) | – | C[C@@H](Oc1cc(C(=O)Nc2ccc(C(=O)N3CCN(C)CC3)cc2)nnc1N)c1c(Cl)ccc(F)c1Cl |
| > 30 µM (inactive) | > 30 µM (inactive) | > 30 µM (inactive) | > 30 µM (inactive) | C[C@H]1CNCCCN1S(=O)(=O)c1cccc2cncc(F)c12 |
| > 30 µM (inactive) | > 30 µM (inactive) | 0.897 µM (active) | – | CCNC(=O)C#Cc1ccc2c(c1)NC(=O)/C2=C(\Nc1ccc(CN(C)C)cc1)c1ccccc1 |
| > 30 µM (inactive) | > 30 µM (inactive) | > 30 µM (inactive) | > 30 µM (inactive) | C=CC(=O)N1CCC[C@H](n2c(=O)n(-c3ccc(Oc4ccccc4)cc3)c3c(N)ncnc32)C1 |
| > 30 µM (inactive) | > 30 µM (inactive) | > 30 µM (inactive) | > 30 µM (inactive) | Cc1nc2cc(-c3nn(C(C)C)c4ncnc(N)c34)ccc2o1 |
| > 30 µM (inactive) | > 30 µM (inactive) | > 30 µM (inactive) | > 30 µM (inactive) | COCc1c(-c2ccc(NC(=O)Nc3cc(C(F)(F)F)ccc3F)c(F)c2)c2c(N)ncnn2c1CN1CCOCC1 |
| > 30 µM (inactive) | > 30 µM (inactive) | > 30 µM (inactive) | > 30 µM (inactive) | Nc1ncnc2c1c(-c1cccc(OCc3ccccc3)c1)cn2[C@H]1C[C@@H](CN2CCC2)C1 [AEW-541] |
| > 30 µM (inactive) | > 30 µM (inactive) | > 30 µM (inactive) | > 30 µM (inactive) | COc1cc(Nc2ncc3c(n2)-c2ccc(Cl)cc2C(c2c(F)cccc2OC)=NC3)ccc1C(=O)O [ALISERTIB] |
| – | > 30 µM (inactive) | > 30 µM (inactive) | > 30 µM (inactive) | Cc1nc(NC(=O)N2CCC[C@H]2C(N)=O)sc1-c1ccnc(C(C)(C)C(F)(F)F)c1 [ALPELISIB] |
| > 30 µM (inactive) | > 30 µM (inactive) | > 30 µM (inactive) | > 30 µM (inactive) | Cc1csc(-c2nnc(Nc3ccc(Oc4ncccc4-c4ccnc(N)n4)cc3)c3ccccc23)c1 [AMG-900] |
| > 30 µM (inactive) | > 30 µM (inactive) | > 30 µM (inactive) | > 30 µM (inactive) | O=C(Nc1c[nH]nc1-c1nc2cc(CN3CCOCC3)ccc2[nH]1)NC1CC1 [AT-9283] |
| > 30 µM (inactive) | > 30 µM (inactive) | > 30 µM (inactive) | > 30 µM (inactive) | C=CC(=O)Nc1cc2c(Nc3ccc(F)c(Cl)c3)ncnc2cc1C#CC(C)(C)N1CCN(C)CC1 [AV-412 FREE BASE] |
| > 30 µM (inactive) | > 30 µM (inactive) | – | – | CNC(=O)c1ccccc1Sc1ccc2c(/C=C/c3ccccn3)n[nH]c2c1 [AXITINIB] |
| > 30 µM (inactive) | > 30 µM (inactive) | > 30 µM (inactive) | – | Cc1nc2cc(-n3ncc(C(=O)c4cc5ccccc5[nH]4)c3N)ccc2[nH]1 [FGFR INHIBITOR DEBIO 1347] |
| > 30 µM (inactive) | > 30 µM (inactive) | – | – | C[C@@H](Oc1cc(-n2cnc3ccc(CN4CCN(C)CC4)cc32)sc1C(N)=O)c1ccccc1C(F)(F)F [GSK-461364] |
| – | > 30 µM (inactive) | > 30 µM (inactive) | > 30 µM (inactive) | COc1ccc(S(=O)(=O)N(C(C)=O)c2ccccc2/C=C/c2cc[n+]([O-])cc2)cc1 [HMN-214] |
| > 30 µM (inactive) | > 30 µM (inactive) | > 30 µM (inactive) | – | CN(C[C@@H]1COCCO1)S(=O)(=O)Nc1ccc2ccc3ncc(-c4cnn(C)c4)cc3c(=O)c2c1 [MK-2461] |
| – | > 30 µM (inactive) | > 30 µM (inactive) | > 30 µM (inactive) | FC(F)(F)c1ccc(/C=C/c2nc(COc3ccc(CCCCn4ccnn4)cc3)co2)cc1 [MUBRITINIB] |
| – | > 30 µM (inactive) | > 30 µM (inactive) | > 30 µM (inactive) | COc1ncc(-c2ccc3nccc(-c4ccnnc4)c3c2)cc1NS(=O)(=O)c1ccc(F)cc1F [OMIPALISIB] |
| > 30 µM (inactive) | 1.24 µM | > 30 µM (inactive) | – | Cc1[nH]c(/C=C2\C(=O)Nc3ccccc32)c(C)c1CCC(=O)O [ORANTINIB] |
| – | > 30 µM (inactive) | > 30 µM (inactive) | > 30 µM (inactive) | NC(=O)c1c(OCc2c(F)cc(Br)cc2F)nsc1NC(=O)NCCCCN1CCCC1 [OSI-632] |
| > 30 µM (inactive) | > 30 µM (inactive) | – | > 30 µM (inactive) | N#CC1(c2ccc(NC(=O)c3cccnc3NCc3ccncc3)cc2)CCCC1 [RIVOCERANIB] |
| > 30 µM (inactive) | > 30 µM (inactive) | – | – | O=C(NOCCO)c1cc(CN2OCCCC2=O)c(F)c(F)c1Nc1ccc(I)cc1F [RO-4987655] |
| – | > 30 µM (inactive) | – | – | N#CC[C@H](C1CCCC1)n1cc(-c2ncnc3[nH]ccc23)cn1 [RUXOLITINIB] |
| – | > 30 µM (inactive) | – | > 30 µM (inactive) | CO[C@H]1C[C@@H]2CC[C@@H](C)[C@@](O)(O2)C(=O)C(=O)N2CCCC[C@H]2C(=O)O[C@H]([C@H](C)C[C@@H]2CC[C@@H](O)[C@H](OC)C2)CC(=O)[C@H](C)/C=C(\C)[C@@H](O)[C@@H](OC)C(=O)[C@H](C)C[C@H](C)/C=C/C=C/C=C/1C [SIROLIMUS] |
| > 30 µM (inactive) | > 30 µM (inactive) | > 30 µM (inactive) | – | Cn1ncc(Cl)c1-c1cc(C(=O)N[C@H](CN)Cc2ccc(F)c(F)c2)oc1Cl [UPROSERTIB] |
| – | > 30 µM (inactive) | 0.429 µM | > 30 µM (inactive) | CC(C)c1cc(CNc2nc(Nc3cc(C4CC4)[nH]n3)cc(N3CCN(C)CC3)n2)on1 [XL-228] |

| Structure (SMILES) | Kd [1] | Kd [2] | Kd [3] | Kd [4] |
| --- | --- | --- | --- | --- |
| CC(=O)c1cnc2ccc(-c3cc(Cl)c(O)c(Cl)c3)nc2c1N[C@H]1CC[C@H](CN(C)C)CC1 | > 30 µM (inactive) | > 30 µM (inactive) | > 30 µM (inactive) | > 30 µM (inactive) |
| NC(=O)Nc1cc(-c2cccc(F)c2)sc1C(=O)N[C@H]1CCCNC1 [AZD-7762] | – | > 30 µM (inactive) | 0.139 µM (active) | > 30 µM (inactive) |
| CC(C)(C)c1nc(-c2cccc(NS(=O)(=O)c3c(F)cccc3F)c2F)c(-c2ccnc(N)n2)s1 [DABRAFENIB] | > 30 µM (inactive) | > 30 µM (inactive) | – | > 30 µM (inactive) |
| Cn1cc(C2=C(c3cn(C4CCN(Cc5ccccn5)CC4)c4ccccc34)C(=O)NC2=O)c2ccccc21 [ENZASTAURIN] | – | > 30 µM (inactive) | – | – |
